# Biological target: HER2 Kinase (Homo sapiens, UniProt P04626)
# Assay: HER-2 ELISA: EGF receptor-HER2 chimeric receptor assay in whole cells
# Assay type: cell-based
# Conditions: 50% inhibition of PTK activity over control
# Experimental: The cellular/catalytic assays described herein are performed in an ELISA format. […] The cells are lysed and the lysate is transferred to the wells of an ELISA plate previously coated with a specific antibody recognizing the substrate of the enzymatic phosphorylation reaction. Non-substrate components of the cell lysate are washed away and the amount of phosphorylation on the substrate is detected with an antibody specifically recognizing phosphotyrosine compared with control cells that were not contacted with a test compound. HER-2 ELISA […] EGF Receptor-HER2 Chimeric Receptor Assay in Whole Cells. HER2 kinase activity in whole EGFR-NIH3T3 cells are measured as described below: Materials and Reagents. The following materials and reagents can be used to conduct the assay: a. EGF: stock concentration: 16.5 ILM; EGF 201, TOYOBO, Co., Ltd. Japan. b. 05-101 (UBI) (a monoclonal antibody recognizing an EGFR extracellular domain). c. Anti-phosphotyrosine antibody (anti-Ptyr) (polyclonal)(see, Fendley, et al., supra). d. Detection antibody: Goat anti-rabbit lgG horse radish peroxidase conjugate, TAGO, Inc., Burlingame, Calif. e. TBST buffer: [table] f. HNTG 5×stock: [table] g. ABTS stock: [table] h. Stock reagents of: [table] Procedure. The following protocol is used: A. Pre-coat ELISA Plate […] Coat ELISA plates (Corning, 96 well, Cat. #25805-96) with 05-101 antibody at 0.5 µg per well in PBS, 100 μL final volume/well, and store overnight at 4° C. Coated plates are good for up to 10 days when stored at 4° C. 2. On day of use, remove coating buffer and replace with 100 μL blocking buffer (5% Carnation Instant Non-Fat Dry Milk in PBS). Incubate the plate, shaking, at room temperature (about 23° C. to 25° C.) for 30 minutes. Just prior to use, remove blocking buffer and wash plate 4 times with TBST buffer. B. Seeding Cells […] An NIH3T3 cell line overexpressing a chimeric receptor containing the EGFR extracellular domain and intracellular HER2 kinase domain can be used for this assay. 2. Choose dishes having 80-90% confluence for the experiment. […]
# Chain of HER2 Kinase (P00533 25-645): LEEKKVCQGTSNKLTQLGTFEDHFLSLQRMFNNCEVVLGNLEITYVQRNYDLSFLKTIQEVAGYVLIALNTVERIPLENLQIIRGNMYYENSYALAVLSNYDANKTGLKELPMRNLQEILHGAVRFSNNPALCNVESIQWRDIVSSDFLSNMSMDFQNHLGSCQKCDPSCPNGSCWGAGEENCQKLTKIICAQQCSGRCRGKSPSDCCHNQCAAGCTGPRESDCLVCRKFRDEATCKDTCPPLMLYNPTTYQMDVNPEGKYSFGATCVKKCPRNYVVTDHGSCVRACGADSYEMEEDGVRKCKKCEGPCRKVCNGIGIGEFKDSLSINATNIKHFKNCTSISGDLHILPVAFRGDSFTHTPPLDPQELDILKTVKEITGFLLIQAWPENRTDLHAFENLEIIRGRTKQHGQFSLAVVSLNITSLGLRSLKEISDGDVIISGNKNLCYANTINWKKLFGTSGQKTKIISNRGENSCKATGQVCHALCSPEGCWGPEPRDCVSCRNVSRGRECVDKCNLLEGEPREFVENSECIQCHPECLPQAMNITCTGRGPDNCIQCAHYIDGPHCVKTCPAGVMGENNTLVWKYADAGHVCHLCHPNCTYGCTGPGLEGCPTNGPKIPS
# Chain of HER2 Kinase (P04626 676-1255): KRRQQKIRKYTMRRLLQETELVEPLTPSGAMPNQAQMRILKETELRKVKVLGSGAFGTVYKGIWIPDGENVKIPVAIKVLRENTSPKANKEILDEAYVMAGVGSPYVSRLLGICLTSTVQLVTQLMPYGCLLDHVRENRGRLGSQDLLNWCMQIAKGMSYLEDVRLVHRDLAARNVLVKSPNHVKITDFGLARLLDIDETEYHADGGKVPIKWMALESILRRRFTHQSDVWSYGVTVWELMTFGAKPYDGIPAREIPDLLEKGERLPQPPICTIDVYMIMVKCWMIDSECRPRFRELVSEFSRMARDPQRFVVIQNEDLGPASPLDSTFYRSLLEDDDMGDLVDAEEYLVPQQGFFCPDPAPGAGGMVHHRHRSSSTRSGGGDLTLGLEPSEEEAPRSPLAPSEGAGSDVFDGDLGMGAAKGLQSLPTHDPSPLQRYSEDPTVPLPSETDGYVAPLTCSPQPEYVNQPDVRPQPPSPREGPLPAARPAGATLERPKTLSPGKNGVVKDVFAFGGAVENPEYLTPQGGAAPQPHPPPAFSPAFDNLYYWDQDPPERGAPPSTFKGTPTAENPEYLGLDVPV
row,SMILES,IC50 [µM]
1,CCOC(=O)c1c[nH]c(C=C2C(=O)Nc3ccccc32)c1C [3-(4-ethoxycarbonyl-3-methylpyrrol-2-methylidenyl)-2-indolinone],> 100
2,CCOC(=O)CCc1c(C(=O)OCC)[nH]c(C=C2C(=O)Nc3ccccc32)c1CC(=O)OCC [3-[2-ethoxycarbonyl-3-(2-ethoxycarbonylethyl)-4-ethoxycarbonylmethyl)pyrrol-5-methylidenyl)-2-indolinone],> 10
3,"COC(=O)CCc1c[nH]c(C=C2C(=O)Nc3cc(OC)c(OC)cc32)c1C [3-[4-(2-methoxycarbonylethyl)-3-methylpyrrol-2-methylidenyl]-5,6-dimethoxy-2-indolinone]",> 50
